From patent US8129396B2, “2-[1H-benzimidazol-2(3H)-ylidene]-2-(pyrimidin-2-yl)acetamides and 2-[benzothiazol-2(3H)-ylidene]-2-(pyrimidin-2-yl)acetamides as kinase inhibitors” (Telik, Inc., priority 2008, dated 2012)

What was measured:
[1] = tested on: HL60 (human promyelocytic leukemia) cells; assay: HL60 cytotoxicity assay (CellTiter-Glo); format: cell-based; settings: HL-60, 72 h, cytotoxicity, three days culture, read-out: HL60 IC50
Description: The cell lines HL60 (human promyelocytic leukemia) and HCT116 (human colon carcinoma) were obtained from the American Type Culture Collection, Manassas, Va., U.S.A., and HUVEC-2 (human umbilical vein endothelial cells) from BD Biosciences, Bedford, Mass., U.S.A. Aurora A kinase was obtained from Upstate Biotech, Billerica, Mass., U.S.A.; Aurora B kinase from BPS Bioscience, San Diego, Calif., U.S.A.; and VEGFR2 kinase from Cell Signaling Technology, Danvers, Mass., U.S.A. The IMAP FP Screening Express kit was obtained from Molecular Devices, Sunnyvale, Calif., U.S.A.; the CellTiter-Glo assay kit from Promega Corporation, Madison, Wis., U.S.A.; and the Cellular DNA Cytometric Analysis Reagent Kit and BrdU labeling and detection kit from Roche Diagnostics Corporation, Indianapolis, Ind., U.S.A. All products were used in accordance with manufacturer's directions. Kinase inhibition assays and the histone phosphorylation (p-H3) assay were conducted in duplicate, and the cytotoxicity and HUVEC proliferation assays were conducted in triplicate, in each case with solvent control.
Log-phase cells were trypsinized, collected by centrifugation, and resuspended in a small volume of fresh medium, and the density of viable cells was determined following Trypan Blue staining. Cells were diluted in fresh media (1×10^4 cells/mL for HL60 and 4×10^4 cells/mL for HCT116 cells), the test compounds (concentrations between 0.1 μM and 200 μM, dissolved in DMSO, 50 μL) added immediately after dilution to achieve a final DMSO concentration of 0.5%, then the suspensions added at 150 μL/well to 96-well plates, and incubated overnight to allow attachment in the case of adherent cells. The cells were cultured for three days (about three doubling times). The cells were then collected by centrifugation, and 100 μL of the culture supernatant was replaced by the CellTiter-Glo reagent. After incubation for 15 minutes at room temperature, the plate was read with a luminometer.

[2] = tested on: p-H3 in HCT116 cells; assay: Histone phosphorylation (p-H3) assay; format: cell-based; settings: Homo sapiens, HCT-116; HCT116 cells, 4 hr incubation; read-out: p-H3 IC50
In short: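 HCT116 cells (2.5×10^4/well, attached overnight) treated 4 h with 8-point 3-fold compound dilutions at 0.5% DMSO. Lysates dot-blotted onto nitrocellulose and probed for p-H3 with β-actin on the same membrane, fluorescent secondary antibodies, Odyssey scan; duplicate wells.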

[3] = tested on: HUVEC-2 (human umbilical vein endothelial cells); assay: HUVEC VEGF-dependent proliferation assay (BrdU); format: cell-based; settings: VEGF (25 ng/mL)-dependent proliferation, read-out: HUVEC IC50
In short: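 HUVEC-2 cells on gelatin got serially diluted compound (0.5% DMSO final), and VEGF (25 ng/mL) was added 2 hr later. BrdU (10 μM) went in after one day, with labelling for another day. VEGF-dependent proliferation was read by BrdU detection, in triplicate.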

[4] = target: T1, VEGFR2 kinase (Homo sapiens, UniProt P35968); assay: VEGFR2 kinase assay; format: biochemical; settings: 6 μM ATP, 1 mM MnCl2; rounded to 1 significant figure
T1 construct: purchased Cell Signaling Technology
In short: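 VEGFR2 phosphorylates CSKtide with 6 μM ATP and 1 mM MnCl2 for 1 hr, otherwise following the Aurora A kinase protocol. Detection by IMAP fluorescence polarization, binding reagent diluted 1:1200 in 1:1 binding buffer A/B. Run in duplicate with solvent control.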

[5] = target: T2, Aurora A kinase (Homo sapiens, UniProt O14965); assay: Aurora A kinase assay (IMAP fluorescence polarization); format: biochemical; settings: 10 μM ATP; rounded to 1 significant figure; read-out: Aur-A IC50
T2 construct: purchased Upstate Biotech
T2 sequence (O14965 1-403): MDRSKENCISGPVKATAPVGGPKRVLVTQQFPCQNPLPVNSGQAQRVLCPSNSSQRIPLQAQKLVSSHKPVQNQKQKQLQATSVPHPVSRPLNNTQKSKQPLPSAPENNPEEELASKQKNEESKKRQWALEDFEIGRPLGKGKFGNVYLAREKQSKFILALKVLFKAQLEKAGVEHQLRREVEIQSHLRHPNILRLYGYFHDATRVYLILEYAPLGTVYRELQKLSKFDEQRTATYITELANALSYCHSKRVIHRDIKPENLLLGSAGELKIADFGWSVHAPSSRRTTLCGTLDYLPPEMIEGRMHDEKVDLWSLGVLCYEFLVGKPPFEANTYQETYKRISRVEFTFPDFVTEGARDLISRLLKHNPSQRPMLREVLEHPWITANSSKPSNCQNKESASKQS
In short: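 Compounds (eight 3-fold dilutions, 2.5% DMSO final) were preincubated 5 min at room temperature with Aurora A kinase in buffer with 1 mM DTT. Reaction with 100 nM fluorescein-PKAtide and 10 μM ATP ran 45 min at room temperature, then was stopped with IMAP binding reagent; fluorescence polarization was read after 30 min.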

[6] = tested on: HCT116 (human colon carcinoma) cells; assay: HCT116 cytotoxicity assay (CellTiter-Glo); format: cell-based; settings: HCT-116, 72 h, cytotoxicity, three days culture, read-out: HCT116 IC50
[7] = tested on: HL60 (human promyelocytic leukemia) xenograft; assay: HL60 xenograft assay, oral administration; format: in vivo, athymic nu/nu mice; settings: dissolved at 10 mg/mL in 0.1M sodium acetate pH5
Method: Male athymic nu/nu mice, 6-8 weeks old (about 20 g), were implanted subcutaneously in the right fore flank with about 1×10^7 cells of the HL60 (human promyelocytic leukemia) line that had been grown in antibiotic-free medium for at least two passages. About 6 days after tumor implantation, when the tumor weight was about 50-250 mg, the mice were assigned to treatment groups. […] […] Tumor growth inhibition was measured 1-2 days after the last day of treatment.

[8] = target: T3, Aurora B kinase (Homo sapiens, UniProt Q96GD4); assay: Aurora B kinase assay (IMAP fluorescence polarization); format: biochemical; settings: 10 μM ATP; rounded to 1 significant figure; read-out: Aur-B IC50
T3 construct: purchased BPS Bioscience
In short: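 Reaction started with 100 nM fluorescein-labelled PKAtide and 10 μM ATP, run 45 min at room temperature, then stopped with IMAP binding reagent (1:400). After 30 min shaking at room temperature, fluorescence polarization read; run in duplicate with solvent control.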

T1 sequence (P35968 20-1356): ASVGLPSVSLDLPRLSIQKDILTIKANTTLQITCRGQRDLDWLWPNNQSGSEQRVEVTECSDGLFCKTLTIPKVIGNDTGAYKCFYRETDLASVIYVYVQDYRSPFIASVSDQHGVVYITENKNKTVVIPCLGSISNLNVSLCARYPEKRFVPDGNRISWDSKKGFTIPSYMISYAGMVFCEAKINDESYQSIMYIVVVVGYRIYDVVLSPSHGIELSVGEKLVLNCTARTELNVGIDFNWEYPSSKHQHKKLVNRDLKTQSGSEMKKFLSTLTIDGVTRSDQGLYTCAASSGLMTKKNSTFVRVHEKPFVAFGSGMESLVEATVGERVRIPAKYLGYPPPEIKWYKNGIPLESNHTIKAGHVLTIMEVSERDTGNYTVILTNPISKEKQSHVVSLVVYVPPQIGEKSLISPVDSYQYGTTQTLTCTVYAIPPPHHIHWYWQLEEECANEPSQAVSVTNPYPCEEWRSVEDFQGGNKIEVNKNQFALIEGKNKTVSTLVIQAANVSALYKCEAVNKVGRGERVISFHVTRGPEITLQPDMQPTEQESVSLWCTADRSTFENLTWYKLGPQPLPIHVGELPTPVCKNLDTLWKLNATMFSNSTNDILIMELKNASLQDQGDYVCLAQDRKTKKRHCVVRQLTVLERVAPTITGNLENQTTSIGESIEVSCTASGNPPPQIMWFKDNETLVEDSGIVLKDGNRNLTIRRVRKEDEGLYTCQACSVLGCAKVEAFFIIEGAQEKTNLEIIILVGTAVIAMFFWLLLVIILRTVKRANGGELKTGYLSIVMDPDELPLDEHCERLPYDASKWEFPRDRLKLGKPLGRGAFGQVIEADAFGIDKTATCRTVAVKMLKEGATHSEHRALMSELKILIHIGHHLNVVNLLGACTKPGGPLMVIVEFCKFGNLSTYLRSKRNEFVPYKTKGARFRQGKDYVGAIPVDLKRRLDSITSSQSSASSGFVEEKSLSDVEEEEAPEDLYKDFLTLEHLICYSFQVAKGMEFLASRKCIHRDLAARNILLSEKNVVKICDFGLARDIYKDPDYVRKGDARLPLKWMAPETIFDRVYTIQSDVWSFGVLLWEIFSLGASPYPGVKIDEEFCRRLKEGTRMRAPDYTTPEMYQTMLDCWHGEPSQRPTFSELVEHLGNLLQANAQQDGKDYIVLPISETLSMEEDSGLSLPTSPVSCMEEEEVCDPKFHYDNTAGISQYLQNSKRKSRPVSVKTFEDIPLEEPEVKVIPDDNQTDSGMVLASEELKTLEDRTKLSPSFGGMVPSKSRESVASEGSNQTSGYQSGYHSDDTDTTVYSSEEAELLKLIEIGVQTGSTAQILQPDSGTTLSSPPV
T3 sequence (Q96GD4 whole entry): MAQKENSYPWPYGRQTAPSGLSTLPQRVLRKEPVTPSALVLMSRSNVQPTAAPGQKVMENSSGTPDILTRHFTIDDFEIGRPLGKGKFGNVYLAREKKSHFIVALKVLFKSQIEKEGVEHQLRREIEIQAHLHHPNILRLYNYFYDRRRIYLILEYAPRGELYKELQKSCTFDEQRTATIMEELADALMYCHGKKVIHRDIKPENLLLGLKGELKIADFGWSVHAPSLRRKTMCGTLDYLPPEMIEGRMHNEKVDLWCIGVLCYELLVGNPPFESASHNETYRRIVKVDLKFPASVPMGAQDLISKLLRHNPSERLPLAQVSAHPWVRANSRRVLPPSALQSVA

Row | SMILES | IC50 [1] [nM] | IC50 [2] [nM] | IC50 [3] [nM] | IC50 [4] [nM] | IC50 [5] [nM] | IC50 [6] [nM] | tumor inhibition relative to vehicle [7] [%] | IC50 [8] [nM]
1 | CCN(C(=O)C1CCN(C)CC1)c1ccc2c(c1)N/C(=C(/C(N)=O)c1nccc(C(F)(F)F)n1)N2 [Compound 141A] | 1000 | 300 | 20 | 40 | 4 | 900 | 49 | 6
2 | CN(C)CC(=O)Nc1ccc2c(c1)S/C(=C(/C(N)=O)c1nccc(C(F)(F)F)n1)N2 [Compound 74A] | 40 | 200 | 80 | 20 | 20 | 300 | – | 10
3 | NC(=O)/C(=C1\Nc2cc(NC(=O)Cn3ccnc3)ccc2S1)c1nccc(C(F)(F)F)n1 [Compound 88A] | 100 | 60 | 300 | 20 | 4 | 300 | – | 8
4 | CN(C)CC(=O)Nc1ccc2c(c1)N/C(=C(/C(N)=O)c1nccc(C(F)(F)F)n1)N2 [Compound 73A] | 200 | 100 | 100 | 6 | 10 | 200 | – | 5
5 | CCN(CCCN1CCOCC1)C(=O)c1ccc2c(c1)S/C(=C(/C(N)=O)c1nccc(C(F)(F)F)n1)N2 [Compound 42A] | 30 | 300 | 40 | 20 | 10 | 500 | – | 6
6 | NC(=O)/C(=C1\Nc2ccc(CCN3CCS(=O)(=O)CC3)cc2S1)c1nccc(C(F)(F)F)n1 [Compound 100A] | 90 | 300 | 20 | 10 | 5 | 400 | – | 9
7 | NC(=O)/C(=C1\Nc2ccc(C(=O)NCCN3CCOCC3)cc2S1)c1nccc(C(F)(F)F)n1 [Compound 54A] | 300 | 400 | 30 | 10 | 6 | 400 | – | 10
8 | CN1CCC(C(=O)Nc2ccc3c(c2)N/C(=C(/C(N)=O)c2nccc(C(F)(F)F)n2)N3)CC1 [Compound 140A] | 300 | 400 | 20 | 20 | 6 | 400 | – | 9
9 | NC(=O)/C(=C1\Nc2ccc(C(=O)NCCCn3ccnc3)cc2N1)c1nccc(C(F)(F)F)n1 [Compound 45A] | 100 | 900 | 10 | 20 | 20 | 500 | – | 7
10 | NC(=O)/C(=C1\Nc2ccc(C(=O)NCCn3ccnc3)cc2S1)c1nccc(C(F)(F)F)n1 [Compound 47A] | 300 | 200 | 4 | 20 | 4 | 300 | – | 6
